Legend:
HT-1080 = assay: Modulatory profiling: Alamar Blue viability, lethal compound cotreated with death modulator (EC50, AUC); assay type: cell-based; set-up: AUC, modulator HT.3MA / AUC, modulator HT.ALLN / AUC HT.ATA / AUC HT.ActD / AUC HT.BHA / AUC HT.BHT / AUC HT.BocD / AUC HT.CHX / AUC HT.Co2+ / AUC HT.DPQ / AUC HT.EGTA / AUC HT.Lmim / AUC HT.NAD+ / AUC HT.Nec-1 / AUC HT.SP600125 / AUC HT.TLCK / AUC HT.U0126: unit not given beside the values; details: for AUC HT.ATA: HT-1080, modulator ATA; for AUC HT.ActD: HT-1080, modulator ActD; for AUC HT.BHA: HT-1080, modulator BHA; for AUC HT.BHT: HT-1080, modulator BHT; for AUC HT.BocD: HT-1080, modulator BocD; for AUC HT.CHX: HT-1080, modulator CHX; for AUC HT.Co2+: HT-1080, modulator Co2+; for AUC HT.CspA: HT-1080, modulator CspA; for AUC HT.DPQ: HT-1080, modulator DPQ; for AUC HT.EGTA: HT-1080, modulator EGTA; for AUC HT.Gd3+: HT-1080, modulator Gd3+; for AUC HT.LNAME: HT-1080, modulator LNAME; for AUC HT.Lmim: HT-1080, modulator Lmim; for AUC HT.NAD+: HT-1080, modulator NAD+; for AUC HT.NMMA: HT-1080, modulator NMMA; for HT.atoc (AUC) / HT.bCarotene (AUC) / HT.deferox (AUC) / HT.digoxin (AUC) / HT.trolox (AUC) / HT.zVAD (AUC): HT-1080; for HT.atoc (AUC): modulator atoc; for HT.bCarotene (AUC): modulator bCarotene; for HT.deferox (AUC): modulator deferox; for HT.digoxin (AUC): modulator digoxin; for HT.trolox (AUC): modulator trolox; for HT.zVAD (AUC): modulator zVAD; as to AUC HT.BHA: reference of the scale not given here; as to AUC HT.EGTA: reference of the scale not given here
BJeLR = assay: as above; assay type: cell-based, human; set-up: AUC, modulator BJ.Gd3+ / AUC, modulator BJ.LNAME / AUC, modulator BJ.Lmin / AUC, modulator BJ.3MA / AUC, modulator BJ.ALLN / AUC, modulator BJ.Boc D / AUC, modulator BJ.CHX / AUC, modulator BJ.Co2+ / AUC, modulator BJ.Nec-1 / AUC, modulator BJ.Pepstatin / AUC, modulator BJ.TLCK / AUC, modulator BJ.atoc / AUC, modulator BJ.trolox / AUC, modulator BJ.zVAD: unit not given beside the values; details: BJeLR cells, modulatory profile value (AUC); for AUC, modulator BJ.3MA: lethal compound cotreated with modulator 3MA; for AUC, modulator BJ.ALLN: lethal compound cotreated with modulator ALLN; for AUC, modulator BJ.Boc D: lethal compound cotreated with modulator Boc D; for AUC, modulator BJ.CHX: lethal compound cotreated with modulator CHX; for AUC, modulator BJ.Co2+: lethal compound cotreated with modulator Co2+; for AUC, modulator BJ.DPQ: lethal compound cotreated with modulator DPQ; for AUC, modulator BJ.Gd3+: lethal compound cotreated with modulator Gd3+; for AUC, modulator BJ.LNAME: lethal compound cotreated with modulator LNAME; for AUC, modulator BJ.Lmin/NAD+: lethal compound cotreated with modulator Lmin/NAD+; for AUC, modulator BJ.Lmin: lethal compound cotreated with modulator Lmin; for AUC, modulator BJ.NAD+: lethal compound cotreated with modulator NAD+; for AUC, modulator BJ.NMMA: lethal compound cotreated with modulator NMMA; for AUC, modulator BJ.Nec-1: lethal compound cotreated with modulator Nec-1; for AUC, modulator BJ.Pepstatin: lethal compound cotreated with modulator Pepstatin; for AUC, modulator BJ.TLCK: lethal compound cotreated with modulator TLCK; as to AUC, modulator BJ.3MA: reference of the scale not given here; as to AUC, modulator BJ.ALLN: reference of the scale not given here; as to AUC, modulator BJ.Boc D: reference of the scale not given here; as to AUC, modulator BJ.CHX: reference of the scale not given here; as to AUC, modulator BJ.Co2+: reference of the scale not given here; as to AUC, modulator BJ.DPQ: reference of the scale not given here; as to AUC, modulator BJ.Gd3+: reference of the scale not given here; as to AUC, modulator BJ.LNAME: reference of the scale not given here; as to AUC, modulator BJ.NAD+: reference of the scale not given here; as to AUC, modulator BJ.NMMA: reference of the scale not given here; as to AUC, modulator BJ.Nec-1: reference of the scale not given here; as to AUC, modulator BJ.Pepstatin: reference of the scale not given here; as to AUC, modulator BJ.TLCK: reference of the scale not given here

| Compound | AUC HT.ATA (HT-1080) | AUC HT.ActD (HT-1080) | AUC HT.BHA (HT-1080) | AUC HT.BHT (HT-1080) | AUC HT.BocD (HT-1080) | AUC HT.CHX (HT-1080) | AUC HT.Co2+ (HT-1080) | AUC HT.CspA (HT-1080) | AUC HT.DPQ (HT-1080) | AUC HT.EGTA (HT-1080) | AUC HT.Gd3+ (HT-1080) | AUC HT.LNAME (HT-1080) | AUC HT.Lmim (HT-1080) | AUC HT.NAD+ (HT-1080) | AUC HT.NMMA (HT-1080) | HT.atoc (AUC) (HT-1080) | HT.bCarotene (AUC) (HT-1080) | HT.deferox (AUC) (HT-1080) | HT.digoxin (AUC) (HT-1080) | HT.trolox (AUC) (HT-1080) | also measured |
| --- | --- | --- | --- | --- | --- | --- | --- | --- | --- | --- | --- | --- | --- | --- | --- | --- | --- | --- | --- | --- | --- |
| Cc1cccc(Cn2ncc(Cl)c(Cl)c2=O)c1 [CIL60] | 0.07052 | 0.04832 | −0.0006407 | −0.1303 | −0.04051 | 0.112 | −0.08003 | −0.004831 | 0.02073 | 0.05296 | −0.0163 | 0.004397 | 0.03464 | 0.01526 | −0.01091 | 0.08708 | 0.04979 | 0.07702 | −0.03602 | −0.0265 | HT.zVAD (AUC) (HT-1080): −0.009922; AUC, modulator BJ.3MA (BJeLR): 0.06736; AUC, modulator BJ.ALLN (BJeLR): −0.004197; AUC, modulator BJ.Boc D (BJeLR): 0.02626; AUC, modulator BJ.CHX (BJeLR): 0.1803; AUC, modulator BJ.Co2+ (BJeLR): 0.03836; AUC, modulator BJ.DPQ (BJeLR): 0.02057; AUC, modulator BJ.Gd3+ (BJeLR): 0.02704; AUC, modulator BJ.LNAME (BJeLR): −0.01542; AUC, modulator BJ.Lmin/NAD+ (BJeLR): 0.05888; AUC, modulator BJ.Lmin (BJeLR): 0.04196; AUC, modulator BJ.NAD+ (BJeLR): 0.05735; AUC, modulator BJ.NMMA (BJeLR): −0.03338; AUC, modulator BJ.Nec-1 (BJeLR): 0.08176; AUC, modulator BJ.Pepstatin (BJeLR): 0.1359; AUC, modulator BJ.TLCK (BJeLR): −0.06705 |
| CC1(C)CC(=O)C2=C(C1)OC1=C(C(=O)CC(C)(C)C1)C2c1ccc(O)cc1O [CIL62] | 0.02941 | −0.01143 | −0.007393 | −0.1437 | 0.002455 | 0.08707 | 0.03422 | −0.001347 | 0.01017 | 0.04611 | −0.02573 | −0.003569 | 0.008056 | −0.01689 | −0.01754 | 0.08235 | 0.02726 | 0.1061 | −0.02448 | −0.03123 | effect of necrostatin-1 on lethality (HT-1080; 19 μM Nec-1): suppressed by necrostatin-1; HT.zVAD (AUC) (HT-1080): −0.01794; AUC, modulator BJ.3MA (BJeLR): 0.009762; AUC, modulator BJ.ALLN (BJeLR): −0.06265; AUC, modulator BJ.Boc D (BJeLR): −0.008658; AUC, modulator BJ.CHX (BJeLR): 0.5162; AUC, modulator BJ.Co2+ (BJeLR): 0.01574; AUC, modulator BJ.DPQ (BJeLR): −0.005752; AUC, modulator BJ.Gd3+ (BJeLR): 0.002946; AUC, modulator BJ.LNAME (BJeLR): −0.02055; AUC, modulator BJ.Lmin/NAD+ (BJeLR): 0.08736; AUC, modulator BJ.Lmin (BJeLR): 0.01862; AUC, modulator BJ.NAD+ (BJeLR): 0.04149; AUC, modulator BJ.NMMA (BJeLR): −0.05556; AUC, modulator BJ.Nec-1 (BJeLR): 0.1929; AUC, modulator BJ.Pepstatin (BJeLR): 0.06831; AUC, modulator BJ.TLCK (BJeLR): −0.03175 |
| O=c1c(Cl)c(Cl)cnn1-c1ccc(Cl)cc1 [CIL63] | 0.07925 | −0.003254 | 0.01784 | −0.1088 | 0.01855 | 0.07744 | 0.02639 | 0.003063 | −0.02172 | 0.06222 | −0.03164 | 0.04201 | 0.03962 | 0.03316 | −0.002298 | 0.07269 | 0.0644 | 0.08989 | 0.02371 | 0.03222 | HT.zVAD (AUC) (HT-1080): 0.01846; AUC, modulator BJ.3MA (BJeLR): 0.04075; AUC, modulator BJ.ALLN (BJeLR): 0.0544; AUC, modulator BJ.Boc D (BJeLR): −0.01053; AUC, modulator BJ.CHX (BJeLR): 0.09508; AUC, modulator BJ.Co2+ (BJeLR): 0.02177; AUC, modulator BJ.DPQ (BJeLR): 0.0003046; AUC, modulator BJ.Gd3+ (BJeLR): 0.01459; AUC, modulator BJ.LNAME (BJeLR): −0.006812; AUC, modulator BJ.Lmin/NAD+ (BJeLR): 0.07776; AUC, modulator BJ.Lmin (BJeLR): 0.01215; AUC, modulator BJ.NAD+ (BJeLR): 0.02352; AUC, modulator BJ.NMMA (BJeLR): 0.002719; AUC, modulator BJ.Nec-1 (BJeLR): 0.02815; AUC, modulator BJ.Pepstatin (BJeLR): 0.02882; AUC, modulator BJ.TLCK (BJeLR): −0.0437 |

Source: patent publication US10947188B2, “Small molecule ferroptosis inducers” (THE TRUSTEES OF COLUMBIA UNIVERSITY IN THE CITY OF NEW YORK, priority 2016, dated 2021)
